Test results published in ChEMBL document CHEMBL3853332, “Pyrazolodiazepine derivatives with agonist activity toward Drosophila RYamide receptor” (Bioorg Med Chem Lett, 2016).
Blank lines part the entries; values can stand above or below the molecule they belong to. The source made the active and inactive calls. The calls are words filed in the database; no cut-off is given here. Peptide text beside a SMILES is read from it.

What was measured:
RYamide receptor = biological target: T1, RYamide receptor (Drosophila melanogaster, UniProt P25931); experiment: Agonist activity at Drosophila melanogaster RYamide receptor expressed in wild type CHO-K1 cells assessed as increase in calcium level after 20 secs by luminescence assay; assay type: cell-based
T1 sequence (P25931 whole entry): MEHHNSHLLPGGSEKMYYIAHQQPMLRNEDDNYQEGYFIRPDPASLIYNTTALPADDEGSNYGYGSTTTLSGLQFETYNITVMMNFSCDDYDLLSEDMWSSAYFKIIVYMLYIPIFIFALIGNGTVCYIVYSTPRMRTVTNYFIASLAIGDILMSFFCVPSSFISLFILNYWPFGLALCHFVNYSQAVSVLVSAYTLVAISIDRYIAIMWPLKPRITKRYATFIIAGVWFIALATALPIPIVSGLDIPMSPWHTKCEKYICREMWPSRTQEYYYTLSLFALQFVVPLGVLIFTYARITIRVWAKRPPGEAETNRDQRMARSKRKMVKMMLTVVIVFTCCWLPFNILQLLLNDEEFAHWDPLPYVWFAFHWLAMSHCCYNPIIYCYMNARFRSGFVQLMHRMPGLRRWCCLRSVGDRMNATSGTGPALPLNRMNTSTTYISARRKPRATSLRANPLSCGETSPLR

[1] = biological target: T2, RYamide receptor (Drosophila melanogaster) (UniProt P25931); experiment: Agonist activity at Drosophila melanogaster RYamide receptor expressed in wild type CHO-K1 cells assessed as increase in calcium level at 0.01 mM after 20 secs by luminescence assay; assay type: cell-based
T2 sequence (whole entry): T1 sequence (P25931 whole entry)

[2] = biological target: T2, RYamide receptor (Drosophila melanogaster); experiment: Partial agonist activity at Drosophila melanogaster RYamide receptor expressed in wild type CHO-K1 cells assessed as increase in calcium level at 5 uM after 20 secs by luminescence assay relative to RYamide-1; assay type: cell-based
[3] = biological target: T3, Neuropeptide F receptor (Drosophila melanogaster) (UniProt Q9VNM1); experiment: Agonist activity at Drosophila melanogaster NPFR1 expressed in wild type CHO-K1 cells assessed as increase in calcium level at low nanomolar concentration after 20 secs by luminescence assay; assay type: functional, cell-based
T3 sequence (whole entry): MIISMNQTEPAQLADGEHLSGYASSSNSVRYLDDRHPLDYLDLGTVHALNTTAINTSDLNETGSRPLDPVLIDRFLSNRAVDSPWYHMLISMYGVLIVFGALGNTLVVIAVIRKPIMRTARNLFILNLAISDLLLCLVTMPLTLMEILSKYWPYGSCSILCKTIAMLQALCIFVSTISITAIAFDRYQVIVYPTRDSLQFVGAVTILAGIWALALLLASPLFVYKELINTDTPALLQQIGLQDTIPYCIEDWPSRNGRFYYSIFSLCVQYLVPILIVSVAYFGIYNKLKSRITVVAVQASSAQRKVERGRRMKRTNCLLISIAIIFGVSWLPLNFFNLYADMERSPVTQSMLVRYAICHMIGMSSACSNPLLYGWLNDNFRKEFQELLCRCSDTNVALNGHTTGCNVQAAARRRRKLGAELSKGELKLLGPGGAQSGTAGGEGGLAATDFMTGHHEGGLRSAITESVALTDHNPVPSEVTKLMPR

SMILES: CC(C)CN1C[C@H](CCCCN)NC(=S)c2nn(CC(C)C)cc21
EC50 (RYamide receptor): 6.8 µM | Activity [1]: Active | Activity [2]: 40%

SMILES: Cc1noc(C)c1CN1CC(Cc2ccccc2)NC(=O)c2nn(CCC3CCN(C(=O)OC(C)(C)C)CC3)cc21 (stereo not drawn)
EC50 (RYamide receptor): 5.9 µM | Activity [1]: Active | Activity [2]: 40%

Activity [3]: Active
SMILES: CSCC[C@H](NC(=O)[C@@H](NC(=O)[C@H](CC(N)=O)NC(=O)[C@@H](NC(=O)[C@H](CC(=O)O)NC(=O)[C@H](CC(N)=O)NC(=O)[C@H](CCCCN)NC(=O)[C@H](CCCNC(=N)N)NC(=O)[C@@H]1CCCN1C(=O)[C@@H]1CCCN1C(=O)[C@H](CCCNC(=N)N)NC(=O)[C@H](CO)NC(=O)[C@H](CC(N)=O)NC(=O)[C@@H](N)CO)C(C)C)[C@@H](C)O)C(=O)N[C@@H](C)C(=O)N[C@@H](CC(=O)O)C(=O)N[C@@H](C)C(=O)N[C@@H](Cc1ccc(O)cc1)C(=O)N[C@@H](CCCCN)C(=O)N[C@@H](Cc1ccccc1)C(=O)N[C@@H](CC(C)C)C(=O)N[C@@H](CCC(N)=O)C(=O)N[C@@H](CC(=O)O)C(=O)N[C@@H](CC(C)C)C(=O)N[C@@H](CC(=O)O)C(=O)N[C@H](C(=O)N[C@@H](Cc1ccc(O)cc1)C(=O)N[C@@H](Cc1ccc(O)cc1)C(=O)NCC(=O)N[C@@H](CC(=O)O)C(=O)N[C@@H](CCCNC(=N)N)C(=O)N[C@@H](C)C(=O)N[C@@H](CCCNC(=N)N)C(=O)N[C@H](C(=O)N[C@@H](CCCNC(=N)N)C(=O)N[C@@H](Cc1ccccc1)C(=O)O)C(C)C)[C@@H](C)O (H-SNSRPPRKNDVNTMADAYKFLQDLDTYYGDRARVRF-OH)

SMILES: CC(C)CN1C[C@H](CCCCN)N=C(SCCC(N)=O)c2nn(CC(C)C)cc21
EC50 (RYamide receptor): 6.1 µM | Activity [1]: Active | Activity [2]: 40%

SMILES: CC(C)CN1C[C@@H](CCCCN)N=C(SCCC(=O)NN)c2nn(CC(C)C)cc21
EC50 (RYamide receptor): 20.9 µM | Activity [1]: Active | Activity [2]: 40%
